In patent US20260200897A1, “4-((5-(3-(4-(PYRIDIN-2-YL)CYCLOPENTYL)-1H-PYRAZOL-3-YL)AMINO)-BENZENESULFONAMIDE DERIVATIVES AND SIMILAR COMPOUNDS AS CDK INHIBITORS FOR THE TREATMENT OF CANCER” (BeOne Medicines I GmbH, priority 2023, published 2026):

Experiments:
CDK2/Cyclin E1 = CDK2/Cyclin E1 (Homo sapiens, UniProt P24941); assay: CDK2/Cyclin E1 TR-FRET biochemical assay, 1 mM ATP; conditions: 0.15 μM Rb (Ser780)-biotin substrate, 90 min reaction, Table 2
CDK1/Cyclin B1 = CDK1/Cyclin B1 (Homo sapiens, UniProt P06493); assay: CDK1/Cyclin B1 TR-FRET biochemical assay, 1 mM ATP; conditions: 0.15 μM Rb (Ser780)-biotin substrate, 90 min reaction, Table 2
Sequence of CDK1/Cyclin B1 (P06493 whole entry): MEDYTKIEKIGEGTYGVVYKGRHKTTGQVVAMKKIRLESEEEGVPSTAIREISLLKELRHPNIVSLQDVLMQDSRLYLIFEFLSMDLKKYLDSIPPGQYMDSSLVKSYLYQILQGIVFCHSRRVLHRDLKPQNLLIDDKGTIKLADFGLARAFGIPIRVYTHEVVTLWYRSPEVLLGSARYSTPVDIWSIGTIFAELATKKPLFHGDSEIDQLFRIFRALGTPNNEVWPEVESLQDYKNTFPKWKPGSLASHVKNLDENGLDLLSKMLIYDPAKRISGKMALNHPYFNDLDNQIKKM
Sequence of CDK1/Cyclin B1 (P14635 whole entry partner): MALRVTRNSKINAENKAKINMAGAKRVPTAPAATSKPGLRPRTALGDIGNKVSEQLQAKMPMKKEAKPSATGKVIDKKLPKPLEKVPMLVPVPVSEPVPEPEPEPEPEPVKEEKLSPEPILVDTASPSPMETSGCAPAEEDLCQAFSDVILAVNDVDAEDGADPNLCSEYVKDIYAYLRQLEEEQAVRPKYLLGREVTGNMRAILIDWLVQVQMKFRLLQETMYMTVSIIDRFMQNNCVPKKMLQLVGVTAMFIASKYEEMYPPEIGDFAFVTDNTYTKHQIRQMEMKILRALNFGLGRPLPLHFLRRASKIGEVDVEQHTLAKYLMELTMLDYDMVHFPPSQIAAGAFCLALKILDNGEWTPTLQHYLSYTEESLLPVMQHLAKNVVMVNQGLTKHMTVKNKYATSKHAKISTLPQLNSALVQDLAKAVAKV

Compound	IC50 (CDK2/Cyclin E1)	IC50 (CDK1/Cyclin B1)
CC(C)(C)c1cnn([C@@H]2CC[C@H](c3cc(Nc4ccc5c(c4F)CNS5(=O)=O)n[nH]3)C2)c1 (relative stereo) [Example 89, cis-5-((5-(3-(4-(tert-butyl)-1H-pyrazol-1-yl)cyclopentyl)-1H-pyrazol-3-yl)amino)-4-fluoro-2,3-dihydrobenzo[d]isothiazole 1,1-dioxide]	351 nM	> 10000 nM
CN1c2ccc(Nc3cc([C@@H]4CC[C@H](c5ncc(C(C)(C)C)o5)C4)[nH]n3)cc2CS1(=O)=O [Example 142, 5-((5-((1R,3S)-3-(5-(tert-butyl)oxazol-2-yl)cyclopentyl)-1H-pyrazol-3-yl)amino)-1-methyl-1,3-dihydrobenzo[c]isothiazole 2,2-dioxide]	12 nM	2530 nM
CC(C)(C)c1cncc(C2CCC(c3cc(Nc4ccc5c(c4F)CNS5(=O)=O)n[nH]3)C2)c1 (stereo not drawn) [Example 128, 5-((5-(3-(5-(tert-butyl)pyridin-3-yl)cyclopentyl)-1H-pyrazol-3-yl)amino)-4-fluoro-2,3-dihydrobenzo[d]isothiazole 1,1-dioxide]	1250 nM	> 10000 nM
CC(C)(C)c1cc(C2CCC(c3cc(Nc4ccc5c(c4F)CNS5(=O)=O)n[nH]3)C2)[nH]n1 (stereo not drawn) [Example 100, 5-((5-(3-(3-(tert-butyl)-1H-pyrazol-5-yl)cyclopentyl)-1H-pyrazol-3-yl)amino)-4-fluoro-2,3-dihydrobenzo[d]isothiazole 1,1-dioxide]	173 nM	> 10000 nM
CC(C)(C)c1cc(C2CCC(c3cc(Nc4ccc5c(c4F)CNS5(=O)=O)n[nH]3)C2)ncn1 (stereo not drawn) [Example 130, 5-((5-(3-(6-(tert-butyl)pyrimidin-4-yl)cyclopentyl)-1H-pyrazol-3-yl)amino)-4-fluoro-2,3-dihydrobenzo[d]isothiazole 1,1-dioxide]	2120 nM	> 10000 nM
CC(C)(C)c1ccnc(C2CCC(c3cc(Nc4cc5c(cc4F)S(=O)(=O)NC5)n[nH]3)C2)n1 (stereo not drawn) [Example 15, 5-((5-(3-(4-(tert-butyl)pyrimidin-2-yl)cyclopentyl)-1H-pyrazol-3-yl)amino)-6-fluoro-2,3-dihydrobenzo[d]isothiazole 1,1-dioxide]	3.7 nM	1060 nM
CC(C)(O)c1cnc(C2CCC(c3cc(Nc4ccc5c(c4F)CNS5(=O)=O)n[nH]3)C2)o1 (stereo not drawn) [Example 110, 4-fluoro-5-((5-(3-(5-(2-hydroxypropan-2-yl)oxazol-2-yl)cyclopentyl)-1H-pyrazol-3-yl)amino)-2,3-dihydrobenzo[d]isothiazole 1,1-dioxide]	32 nM	7240 nM
CC(C)c1ncc(C2CCC(c3cc(Nc4ccc5c(c4F)CNS5(=O)=O)n[nH]3)C2)o1 (stereo not drawn) [Example 105, 4-fluoro-5-((5-(3-(2-isopropyloxazol-5-yl)cyclopentyl)-1H-pyrazol-3-yl)amino)-2,3-dihydrobenzo[d]isothiazole 1,1-dioxide]	812 nM	> 10000 nM
Cc1nc(C2CCC(c3cc(Nc4ccc(S(N)(=O)=O)cc4F)n[nH]3)C2)oc1C(C)(C)C (stereo not drawn) [Example 8, 4-((5-(3-(5-(tert-butyl)-4-methyloxazol-2-yl)cyclopentyl)-1H-pyrazol-3-yl)amino)-3-fluorobenzenesulfonamide]	79 nM	> 10000 nM
O=S1(=O)NCc2c1ccc(Nc1cc(C3CCC(c4cnc(C5CC5)o4)C3)[nH]n1)c2F (stereo not drawn) [Example 106, 5-((5-(3-(2-cyclopropyloxazol-5-yl)cyclopentyl)-1H-pyrazol-3-yl)amino)-4-fluoro-2,3-dihydrobenzo[d]isothiazole 1,1-dioxide]	1050 nM	> 10000 nM
CC(C)(C)c1cc(O[C@@H]2CC[C@H](c3cc(Nc4ccc5c(c4F)CNS5(=O)=O)n[nH]3)C2)ncn1 (relative stereo) [Example 38, cis-5-((5-(3-((6-(tert-butyl)pyrimidin-4-yl)oxy)cyclopentyl)-1H-pyrazol-3-yl)amino)-4-fluoro-2,3-dihydrobenzo[d]isothiazole 1,1-dioxide]	2370 nM	> 10000 nM
CC(C)(C)c1ccnc(C2CCC(c3cc(Nc4ccc(S(N)(=O)=O)cc4F)n[nH]3)C2)n1 (stereo not drawn) [Example 4, 4-((5-(3-(4-(tert-butyl)pyrimidin-2-yl)cyclopentyl)-1H-pyrazol-3-yl)amino)-3-fluorobenzenesulfonamide]	7.1 nM	848 nM
CC(C)(C)c1cnc(C2CCC(c3cc(Nc4ccc(S(N)(=O)=O)cc4F)n[nH]3)C2)o1 (single isomer, unassigned) [Example 6d, 4-((5-(3-(5-(tert-butyl)oxazol-2-yl)cyclopentyl)-1H-pyrazol-3-yl)amino)-3-fluorobenzenesulfonamide]	503 nM	> 10000 nM
Cn1ncc(C(C)(C)C)c1O[C@@H]1CC[C@H](c2cc(Nc3ccc4c(c3F)CNS4(=O)=O)n[nH]2)C1 (relative stereo) [Example 72, cis-5-((5-(3-((4-(tert-butyl)-1-methyl-1H-pyrazol-5-yl)oxy)cyclopentyl)-1H-pyrazol-3-yl)amino)-4-fluoro-2,3-dihydrobenzo[d]isothiazole 1,1-dioxide]	5910 nM	> 10000 nM
CC(C)(C)c1cnnc(C2CCC(c3cc(Nc4cc5c(cc4F)S(=O)(=O)NC5)n[nH]3)C2)c1 (stereo not drawn) [Example 14, 5-((5-(3-(5-(tert-butyl)pyridazin-3-yl)cyclopentyl)-1H-pyrazol-3-yl)amino)-6-fluoro-2,3-dihydrobenzo[d]isothiazole 1,1-dioxide]	369 nM	> 10000 nM
CC(C)c1ccnc(C2CCC(c3cc(Nc4cc5c(cc4F)S(=O)(=O)NC5)n[nH]3)C2)n1 (stereo not drawn) [Example 16, 6-fluoro-5-((5-(3-(4-isopropylpyrimidin-2-yl)cyclopentyl)-1H-pyrazol-3-yl)amino)-2,3-dihydrobenzo[d]isothiazole 1,1-dioxide]	12 nM	2490 nM
COc1cccc(C2CCC(c3cc(Nc4cc5c(cc4F)S(=O)(=O)NC5)n[nH]3)C2)n1 (stereo not drawn) [Example 11, 6-fluoro-5-((5-(3-(6-methoxypyridin-2-yl)cyclopentyl)-1H-pyrazol-3-yl)amino)-2,3-dihydrobenzo[d]isothiazole 1,1-dioxide]	2760 nM	> 10000 nM

Other lines, results leading:

IC50 (CDK2/Cyclin E1)	IC50 (CDK1/Cyclin B1)	Compound
3 nM	336 nM	Cc1nc(C2CCC(c3cc(Nc4ccc5c(c4F)CS(=O)(=O)C5)n[nH]3)C2)oc1C(C)(C)C (stereo not drawn) [Example 177, 5-((5-(3-(5-(tert-butyl)-4-methyloxazol-2-yl)cyclopentyl)-1H-pyrazol-3-yl)amino)-4-fluoro-1,3-dihydrobenzo[c]thiophene 2,2-dioxide]
1.7 nM	126 nM	CC(C)c1ccnc(C2CCC(c3cc(Nc4ccc5c(c4F)CS(=O)(=O)N5)n[nH]3)C2)n1 (stereo not drawn) [Example 165, 4-fluoro-5-((5-(3-(4-isopropylpyrimidin-2-yl)cyclopentyl)-1H-pyrazol-3-yl)amino)-1,3-dihydrobenzo[c]isothiazole 2,2-dioxide]
1060 nM	> 10000 nM	CC(C)(C)c1cc(C2CCC(c3cc(Nc4ccc5c(c4F)CS(=O)(=O)N5)n[nH]3)C2)ccn1 (stereo not drawn) [Example 161, 5-((5-(3-(2-(tert-butyl)pyridin-4-yl)cyclopentyl)-1H-pyrazol-3-yl)amino)-4-fluoro-1,3-dihydrobenzo[c]isothiazole 2,2-dioxide]
0.9 nM	202 nM	CC(C)(C)c1cnc(C2CCC(c3cc(Nc4ccc5c(c4F)CCS(=O)(=O)N5)n[nH]3)C2)o1 (stereo not drawn) [Example 166, 6-((5-(3-(5-(tert-butyl)oxazol-2-yl)cyclopentyl)-1H-pyrazol-3-yl)amino)-5-fluoro-3,4-dihydro-1H-benzo[c][1,2]thiazine 2,2-dioxide]
2020 nM	> 10000 nM	CC(C)(C)c1ccc(C2CCC(c3cc(Nc4ccc5c(c4F)CS(=O)(=O)N5)n[nH]3)C2)nc1 (stereo not drawn) [Example 156, 5-((5-(3-(5-(tert-butyl)pyridin-2-yl)cyclopentyl)-1H-pyrazol-3-yl)amino)-4-fluoro-1,3-dihydrobenzo[c]isothiazole 2,2-dioxide]
439 nM	> 10000 nM	Cc1cc(C(C)(C)C)cc(C2CCC(c3cc(Nc4ccc5c(c4F)CS(=O)(=O)C5)n[nH]3)C2)n1 (stereo not drawn) [Example 175, 5-((5-(3-(4-(tert-butyl)-6-methylpyridin-2-yl)cyclopentyl)-1H-pyrazol-3-yl)amino)-4-fluoro-1,3-dihydrobenzo[c]thiophene 2,2-dioxide]
57 nM	6710 nM	CC(C)(C)c1cnc(C2CCC(c3cc(Nc4ccc5c(c4)CN=S5(C)=O)n[nH]3)C2)o1 (single isomer, unassigned) [Example 169c, 5-((5-(3-(5-(tert-butyl)oxazol-2-yl)cyclopentyl)-1H-pyrazol-3-yl)amino)-1-methyl-3H-1λ^4-benzo[d]isothiazole 1-oxide]
9.6 nM	540 nM	Cc1nc(C2CCC(c3cc(Nc4ccc5c(c4F)CS(=O)(=O)N5)n[nH]3)C2)oc1C(C)(C)C (stereo not drawn) [Example 154, 5-((5-(3-(5-(tert-butyl)-4-methyloxazol-2-yl)cyclopentyl)-1H-pyrazol-3-yl)amino)-4-fluoro-1,3-dihydrobenzo[c]isothiazole 2,2-dioxide]
0.6 nM	189 nM	CC(C)(C)c1cnc(C2CCC(c3cc(Nc4ccc5c(c4)CN=S5(C)=O)n[nH]3)C2)o1 (single isomer, unassigned) [Example 169a, 5-((5-(3-(5-(tert-butyl)oxazol-2-yl)cyclopentyl)-1H-pyrazol-3-yl)amino)-1-methyl-3H-1λ^4-benzo[d]isothiazole 1-oxide]
78 nM	7400 nM	CC(C)(C)c1coc(C2CCC(c3cc(Nc4ccc5c(c4F)CS(=O)(=O)N5)n[nH]3)C2)n1 (stereo not drawn) [Example 148, 5-((5-(3-(4-(tert-butyl)oxazol-2-yl)cyclopentyl)-1H-pyrazol-3-yl)amino)-4-fluoro-1,3-dihydrobenzo[c]isothiazole 2,2-dioxide]
